# Reference: ChEMBL document CHEMBL5370539, “Oxazole-4-carboxamide/butylated hydroxytoluene hybrids with GSK-3β inhibitory and neuroprotective activities against Alzheimer's disease” (Eur J Med Chem, 2023)
# The source made the active and inactive calls. No cut-off for these calls is given here.
# Legend:
# [1] = molecular target: Glycogen synthase kinase-3 beta (Homo sapiens, UniProt P49841); assay: Inhibition of recombinant human GSK-3beta using YRRAAVPPSPSLSRHSSPHQ(pS)EDEE as substrate preincubated for 15 mins followed by substrate addition and measured after 60 mins by Kinase-Glo luminescent kinase assay
# PC-12 = assay: Neuroprotective activity against H2O2-induced cytotoxicity in rat PC12 cells assessed as increase in cell viability at 10 uM preincubated for 12 hrs followed by replacement with fresh media and H2O2 stimulation for 12 hrs by MTT assay; type: functional, cell-based
# Chain of Glycogen synthase kinase-3 beta (P49841 whole entry): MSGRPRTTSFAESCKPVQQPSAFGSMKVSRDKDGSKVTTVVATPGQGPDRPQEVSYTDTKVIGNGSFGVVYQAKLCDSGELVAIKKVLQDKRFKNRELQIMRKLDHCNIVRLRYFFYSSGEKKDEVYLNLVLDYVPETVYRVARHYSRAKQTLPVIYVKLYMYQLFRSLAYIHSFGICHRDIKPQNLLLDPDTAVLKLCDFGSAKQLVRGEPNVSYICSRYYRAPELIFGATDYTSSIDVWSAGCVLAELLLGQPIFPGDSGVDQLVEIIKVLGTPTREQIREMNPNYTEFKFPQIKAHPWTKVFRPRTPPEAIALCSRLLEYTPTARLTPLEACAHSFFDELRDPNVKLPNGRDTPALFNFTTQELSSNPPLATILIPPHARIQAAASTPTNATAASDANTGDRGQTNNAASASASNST
SMILES,IC50 [1] [nM],Activity (PC-12)
COc1ccc(-c2ocnc2C(=O)NCCCNC(=O)/C=C/c2cc(C(C)(C)C)c(O)c(C(C)(C)C)c2)cc1I,> 1,
COc1ccc(-c2ocnc2C(=O)NCCCNC(=O)c2cc(C(C)(C)C)c(O)c(C(C)(C)C)c2)cc1I,0.48,
COc1ccc(-c2ocnc2C(=O)NCCCNC(=O)CCc2cc(C(C)(C)C)c(O)c(C(C)(C)C)c2)cc1Cl,> 1,
COc1ccc(-c2ocnc2C(=O)NCCCNC(=O)c2cc(C(C)(C)C)c(O)c(C(C)(C)C)c2)cc1F,> 1,
COC(=O)[C@@]12OC[C@]34[C@H]([C@@H](O)[C@@H]1O)[C@@]1(C)CC(=O)C(O)=C(C)[C@@H]1C[C@H]3OC(=O)[C@H](OC(=O)C=C(C)C)[C@@H]24,,inactive
COc1ccc(-c2ocnc2C(=O)NCCCCNC(=O)c2cc(C(C)(C)C)c(O)c(C(C)(C)C)c2)cc1Cl,0.81,Active
COc1ccc(-c2ocnc2C(=O)NCCCNC(=O)CCc2cc(C(C)(C)C)c(O)c(C(C)(C)C)c2)cc1I,> 1,
COc1ccc(-c2ocnc2C(=O)NCCCn2cc(CNC(=O)CCc3cc(C(C)(C)C)c(O)c(C(C)(C)C)c3)nn2)cc1Cl,0.27,
COc1ccc(-c2ocnc2C(=O)NCCCn2cc(CNC(=O)c3cc(C(C)(C)C)c(O)c(C(C)(C)C)c3)nn2)cc1Cl,> 1,
COc1ccc(-c2ocnc2C(=O)NCCCc2ccc(NC(=O)/C=C/c3cc(C(C)(C)C)c(O)c(C(C)(C)C)c3)cc2)cc1F,> 1,
COc1ccc(-c2ocnc2C(=O)NCCCc2ccc(NC(=O)c3cc(C(C)(C)C)c(O)c(C(C)(C)C)c3)cc2)cc1Cl,0.92,Active
COc1c(F)cc(-c2ocnc2C(=O)NCCCNC(=O)CCc2cc(C(C)(C)C)c(O)c(C(C)(C)C)c2)cc1F,> 1,
COc1ccc(-c2ocnc2C(=O)NCCCCNC(=O)CCc2cc(C(C)(C)C)c(O)c(C(C)(C)C)c2)cc1Cl,0.84,Active
COc1ccc(-c2ocnc2C(=O)NCCCNC(=O)c2cc(C(C)(C)C)c(O)c(C(C)(C)C)c2)cc1Cl,> 1,
COc1ccc(-c2ocnc2C(=O)NCCCn2cc(CNC(=O)CCc3cc(C(C)(C)C)c(O)c(C(C)(C)C)c3)nn2)cc1I,0.81,
COc1ccc(-c2ocnc2C(=O)NCCCCNC(=O)CCc2cc(C(C)(C)C)c(O)c(C(C)(C)C)c2)cc1F,0.78,Active
COc1ccc(-c2ocnc2C(=O)NCCCNC(=O)/C=C/c2cc(C(C)(C)C)c(O)c(C(C)(C)C)c2)cc1Cl,0.41,
COc1ccc(-c2ocnc2C(=O)NCCCn2cc(CNC(=O)/C=C/c3cc(C(C)(C)C)c(O)c(C(C)(C)C)c3)nn2)cc1Cl,0.76,
COc1c(F)cc(-c2ocnc2C(=O)NCCCc2ccc(NC(=O)/C=C/c3cc(C(C)(C)C)c(O)c(C(C)(C)C)c3)cc2)cc1F,0.95,Active
COc1ccc(-c2ocnc2C(=O)NCCCc2ccc(NC(=O)CCc3cc(C(C)(C)C)c(O)c(C(C)(C)C)c3)cc2)cc1Cl,> 1,
COc1ccc(-c2ocnc2C(=O)NCCCCNC(=O)c2cc(C(C)(C)C)c(O)c(C(C)(C)C)c2)cc1F,0.62,Active
COc1ccc(-c2ocnc2C(=O)NCCCn2cc(CNC(=O)/C=C/c3cc(C(C)(C)C)c(O)c(C(C)(C)C)c3)nn2)cc1I,0.33,
COc1ccc(-c2ocnc2C(=O)NCCCNC(=O)CCc2cc(C(C)(C)C)c(O)c(C(C)(C)C)c2)cc1F,> 1,
COc1ccc(-c2ocnc2C(=O)NCCCn2cc(CNC(=O)c3cc(C(C)(C)C)c(O)c(C(C)(C)C)c3)nn2)cc1I,0.31,
COc1c(F)cc(-c2ocnc2C(=O)NCCCNC(=O)c2cc(C(C)(C)C)c(O)c(C(C)(C)C)c2)cc1F,0.96,
